{"source": "patent US8906936B2", "about": "“Pharmaceutical combination comprising co-administration of taxane and N-(1-cyclohexyl-2-{2-[4-(4-fluoro-benzoyl)-thiazol-2-yl]-pyrrolidin-1-yl}-2-oxo-ethyl)-2-methylamino-propionamide or pharmaceutically acceptable salt(s) thereof” (Novartis AG, priority 2005, dated 2014)", "key": {"BIR3 domain of CIAP1": {"target": "BIR3 domain of CIAP1 (Homo sapiens, UniProt Q13490)", "sequence (Q13490 253-363 limits assumed)": "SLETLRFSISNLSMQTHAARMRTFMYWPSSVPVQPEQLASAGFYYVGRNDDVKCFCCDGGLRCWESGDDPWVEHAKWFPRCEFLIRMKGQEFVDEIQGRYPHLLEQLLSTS", "experiment": "affinity for BIR3 domain of CIAP1", "format": "binding"}, "MDA231": {"system": "MDA231", "experiment": "72 hr MTS assay, LBW242 with or without Taxol, MDA231", "format": "cell-based, human", "excerpt": "(§1) 1. […] MTS Data is generated as described below:\n(§2) Selection of IAP Inhibitor Dose Levels"}, "[1]": {"system": "tumor cell lines representing lung, ovarian, melanoma, pancreatic cancers", "experiment": "72 hr MTS assay, panels of tumor cell lines (lung, ovarian, melanoma, pancreatic)", "experimental": "To determine whether the spectrum of tumor cell lines which responded to these agents would be wider in combination with the cytotoxic drug Taxol, we subject panels of tumor cell lines representing a number of human cancers to in vitro combination analyses.\nMTS Reagent (#G1111; Promega) in PBS, pH 6-6.5. […] Tumor Cell Lines are purchased from ATCC.\nCell proliferation/cell death is analyzed in 72 hr. […] Tumor cell lines are plated at subconfluent densities in 96 well plate format and allowed to adhere for 12-16 hr. Cpds are then added according to the following schemes: i.\nChemotherapeutic agents or cytotoxic cpds (Ctx) are added alone, in an 8-point/10-fold titration scheme from high to low dose, in triplicate. ii. […] Once all dosing is completed, cells are cultured for a further 72 hr. and then assayed using the MTS format:\nPlate cells in RPMI/10% FBS Complete medium. […]\nAdd MTS/PMS reagents to T.0 Plate(s). […] Read OD 490 nm using SoftMax Pro software on a Molecular Devices (Sunnyvale, Calif.) Spectrophotometer. Calculate T.0 values for each cell line to be assayed by generating the mean value of the OD 490 nm readings from each cell line's T.0 wells (6/cell line) and subtracting the mean OD 490 nm values from Blank wells. […]\nAdd 20 ul mixture to ea. well & incubate plate(s) 2 hr. @ 37° C./5% CO2. Read OD 490 nm using SoftMax Pro software on a Molecular Devices Spectrophotometer. […]"}, "SKOV3": {"system": "SKOV3", "experiment": "72 hr MTS assay, LBW242 with or without Taxol, SKOV3", "format": "cell-based, human", "excerpt": "as §1, §2"}, "BIR3 domain of XIAP": {"target": "BIR3 domain of XIAP (Homo sapiens, UniProt P98170)", "sequence (P98170 241-356 limits assumed)": "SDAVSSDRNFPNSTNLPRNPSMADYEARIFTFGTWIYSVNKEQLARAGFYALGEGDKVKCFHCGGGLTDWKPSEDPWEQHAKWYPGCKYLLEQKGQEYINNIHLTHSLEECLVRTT", "experiment": "affinity for BIR3 domain of XIAP", "format": "binding"}, "melanoma cell line A375": {"system": "melanoma cell line A375", "experiment": "three day proliferation assay in A375", "format": "cell-based", "description": "Bottom two curves show Taxol dose response in presence of either 6 μM or 12 μM compound of formula (III)."}, "[2]": {"system": "orthotopic breast cancer model MDA-MB-231", "experiment": "orthotopic breast cancer model MDA-MB-231, anti-tumor activity", "format": "in vivo", "conditions": "in combination with Paclitaxel; established tumors treated for two weeks; compared to either single agent"}, "[3]": {"system": "ovarian carcinoma line SKOV3", "experiment": "anti-proliferative activity of combination with Docetaxel in SKOV3 in vitro", "format": "cell-based", "conditions": "across a dose range", "excerpt": "FIG. 1 indicates anti-proliferative activity of compound of formula (III) alone (bottom row), Docetaxel alone (most leftward column) and combinations of the two agents across a dose range. FIG. 2 is the corresponding isobologram at 70% growth inhibition."}, "[4]": {"conditions": "criterion: minimum five fold potency shift of Taxol IC50 relative to Taxol alone"}}, "data": [{"smiles": "CN[C@@H](C)C(=O)N[C@H](C(=O)N1CC[C@H]2CCN(CCc3ccccc3)C[C@H]21)C1CCCCC1", "note": "[LBW242]", "values": [{"measurement": "affinity", "setting": "BIR3 domain of CIAP1", "result": "nM affinity"}, {"measurement": "combination activity with Taxol", "setting": "MDA231; [4]", "result": "exhibit combination activity"}, {"measurement": "response to monotherapy", "setting": "MDA231; single agent", "result": "responsive"}, {"measurement": "range of tumor cell lines sensitive in combination with a cytotoxic agent versus as a single agent", "setting": "[1]; in combination with Taxol", "result": "slightly larger"}, {"measurement": "single agent activity across tumor cell lines", "setting": "[1]; single agent, in vitro", "result": "single agent activity on a limited number of tumor cell lines"}, {"measurement": "combination activity with Taxol", "setting": "SKOV3; [4]", "result": "exhibit combination activity"}, {"measurement": "response to monotherapy", "setting": "SKOV3; single agent", "result": "responsive"}]}, {"smiles": "CN[C@@H](C)C(=O)N[C@H](C(=O)N1CCC[C@H]1c1nc(C(=O)c2ccc(F)cc2)cs1)C1CCCCC1", "note": "[LCL161]", "values": [{"measurement": "affinity", "setting": "BIR3 domain of XIAP", "result": "nM affinity"}]}, {"smiles": "CN[C@@H](C)C(=O)N[C@H](C(=O)N1CC[C@H]2CCN(CCc3ccccc3)C[C@H]21)C1CCCCC1", "note": "[compound of formula (III)]", "values": [{"measurement": "anti-proliferative activity of Taxol in combination", "setting": "melanoma cell line A375; Taxol dose response in presence of 6 μM or 12 μM compound of formula (III), A375, three day", "result": "dramatically enhanced"}, {"measurement": "stand alone activity", "setting": "melanoma cell line A375; single agent, A375 (data not shown)", "result": "no stand alone activity"}, {"measurement": "anti-tumor activity of the combination with Paclitaxel", "setting": "[2]", "result": "superior anti-tumor activity compared to either agent administered as a single agent"}, {"measurement": "interaction of the combination with Docetaxel (anti-proliferative activity)", "setting": "[3]", "result": "significant synergy"}]}]}
